Laboratory results: patent US9067974B2, “Polymyxin derivatives and uses thereof” (priority 2006, dated 2015)
pIC50: −log10 of the molar value. Where two headings read alike, the source gives them in different places.

What was measured:
[1] = test system: E. coli IH3080 (K1:O18); assay: Well diffusion growth inhibition on LB agar plates (direct antibacterial activity); format: cell-based, Escherichia coli
Method in brief: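 Growth inhibition of encapsulated E. coli IH3080 (K1:O18) was measured by well diffusion on LB agar plates. A suspension of about 10^8 cells/ml in 0.9% NaCl, made from an overnight LB agar culture, was spread over the plates and the excess removed. Once dry, five 2 mm wells were drilled per plate and test solutions added, with 0.9% NaCl as control. After 18 h at 37° C, inhibition zone diameters were measured and converted to surface areas in square mm.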

[2] = test system: Acinetobacter baumannii ATCC 19606; assay: as above; format: cell-based; conditions: A. baumannii ATCC 19606
Method in brief: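 Direct antibacterial activity against Acinetobacter baumannii ATCC 19606 was measured by agar well diffusion on LB plates. The plates were flooded with a suspension of approx. 10^8 cells/ml in 0.9% NaCl, and the excess was removed. Once the surface dried, five wells of 2 mm diameter were drilled per plate. The wells were filled with test compound dissolved in 0.9% NaCl, with plain 0.9% NaCl as control. After 18 h at 37° C., inhibition zone diameters were measured and converted to growth inhibition areas in square mm.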

[3] = test system: Pseudomonas aeruginosa ATCC 27853; assay: as above; format: cell-based; conditions: Ps. aeruginosa ATCC 27853
Method in brief: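 Pseudomonas aeruginosa ATCC 27853 was tested for direct antibacterial susceptibility by agar well diffusion. A suspension of about 10^8 cells/ml in 0.9% NaCl was spread over LB agar and the excess removed. After drying, 2 mm wells were drilled and filled with compound dissolved in 0.9% NaCl, with NaCl alone as control. Plates were incubated 18 h at 37° C, and inhibition zone diameters were measured and converted to areas in square mm.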

[4] = test system: E. coli IH3080; assay: Sensitization to rifampin: well diffusion growth inhibition on LB plates containing rifampin; format: cell-based, Escherichia coli; conditions: 4 μg of compound
[5] = target: brush-border membrane (BBM) from the renal cortex; assay: Inhibition of [3H] gentamycin binding to brush-border membrane vesicles; design: species or system rats; conditions: 20 μM [3H] gentamycin; 60 min at 4° C.; rat renal cortex BBM vesicles
Source text: The binding of the compounds according to this invention to isolated brush-border membrane (BBM) from the renal cortex can be measured indirectly by measuring their ability to inhibit the binding of radiolabelled gentamycin to BBM. Accordingly, the compounds according to this invention that have less affinity to BBM than for example polymyxin B inhibit the binding of radiolabelled gentamycin to a lesser degree than does polymyxin B.
BBM was isolated from the renal cortex of male albino rats by using the Mg^2+/EGTA precipitation technique as described by Nagai et al. (2006). The binding of gentamycin was measured, according to the method described by Nagai et al. (2006) by incubating BBM vesicles (20 μl) in 10 mM HEPES (pH 7.5) with 100 mM mannitol in the presence of 20 μM [^3H] gentamycin (Amersham Biosciences Inc., Buckinghamshire, U.K.) with or without the compound to be tested or a positive control. After an incubation of 60 min at 4° C., 1 ml of ice-cold buffer described above was added, and the mixture was filtered through a Millipore filter (0.45 μm; HAWP). The filter was washed with the buffer and the radioactivity remaining in the filter was measured by using a liquid scintillation counter. The IC50 values were determined as in Nagai et al. (2006) using the Hill equation.

[6] = Two-week intravenous toxicity study in young rats; format: in vivo
Description: Toxicity in young rats (weighing approx. 150 g in the beginning of the study) was determined by administering doses (1, 2, 4, 8, 16, and 32 mg/kg per day) of NAB7061 as well as the control compound polymyxin B intravenously twice (2) a day for two weeks. A group of ten (10) rats was studied for each dosis regimen. Clinical observations were made daily, the body weight measured twice weekly, and the food consumption twice weekly. In the end of week 2, all animals were sacrificed.
Histopathology of kidneys was performed for each animals and histopathology of all tissues was performed in three high-dose groups receiving NAB7061.

[7] = test system: Ac. baumannii ATCC19606; assay: E-test MIC of antibiotics on Mueller-Hinton agar with or without NAB7061 (4 μg/ml); sensitization factor = MIC ratio absence/presence; format: cell-based; conditions: Acinetobacter baumannii, NAB 7061 0 μg/ml, A. baumannii ATCC19606
Description: (§1) MICs were determined by using E-strips (Biodisk Ltd., Solna, Sweden) according to the manufacturer's instructions.
(§2) The strains originated from ATCC (11 strains), CCUG (11 strains), and NCTC (The National Collection of Type Cultures, Colindale, U.K.; 2 strains). Eight strains (the F-strains) were purchased from Mobidiag Ltd., Helsinki, Finland. The source of E. coli IH3080 has been given in Example 2. Sensitization factor was defined as in Example 7.
(§3) Sensitization factor was defined as in Example 7. NAB7061 sensitized both carbapenem-resistant strains (F263, F264) to both carbapenems by a factor ≧4.

[8] = test system: Ac. baumannii F263; assay: as above; format: cell-based; conditions: Acinetobacter baumannii, NAB 7061 0 μg/ml, A. baumannii F263
Description: as §1, §2, §3

[9] = test system: Ac. baumannii F264; assay: as above; format: cell-based; conditions: Acinetobacter baumannii, NAB 7061 0 μg/ml, A. baumannii F264
Description: as §1, §2, §3

[10] = test system: E. coli; conditions: Sakura et al. 2004; cited from earlier work

For “MO(H)A-XTX-cy[XXFLXXT], SEQ ID NO:1; commercially available polymyxin B is a mixture [reference compound]”, the “Antibacterial activity (growth inhibition area around a well)” value ([1]; 4 μg of compound per well) was 79 square millimeters, the “Antibacterial activity (growth inhibition area around a well)” value ([1]; 10 μg of compound per well) was 133 square millimeters and the “Antibacterial activity (growth inhibition area around a well)” value ([2]; 4 μg per well) was 113 square millimeters. For the same compound, the “Antibacterial activity (growth inhibition area around a well)” value ([2]; 10 μg per well) was 154 square millimeters, the “Antibacterial activity (growth inhibition area around a well)” value ([3]; 4 μg per well) was 95 square millimeters and the “Antibacterial activity (growth inhibition area around a well)” value ([3]; 10 μg per well) was 133 square millimeters. The “Antibacterial activity in the presence of rifampin (growth inhibition area around a well)” value ([4]; rifampin 0 μg/ml) was 79 square millimeters, the “Antibacterial activity in the presence of rifampin (growth inhibition area around a well)” value ([4]; rifampin 0.1 μg/ml) was 95 square millimeters and the “Antibacterial activity in the presence of rifampin (growth inhibition area around a well)” value ([4]; rifampin 1.0 μg/ml) was 104 square millimeters. The pIC50 [5] was 4.41, the “Rise of blood urea nitrogen (BUN) versus control or low dose group” value ([6]; rat, in vivo, 16 mg/kg/day) was 15% and the “Lowest dose that negatively influenced the body weight gain” value ([6]; rat, in vivo, iv) was 1 mg/kg per day. For the same compound, the Mortality ([6]; rats, 32 mg/kg per day intravenously for two weeks) was 100%.

C[C@@H](O)[C@H]1C(=O)N2C(C(=O)O)=C(SCCN=CN)C[C@H]12 [imipenem, reference compound] showed an MIC ([7]; read-out: MIC of imipenem) of 0.38 µg/mL, an MIC ([8]; read-out: MIC of imipenem) greater than 32 µg/mL and an MIC ([9]; read-out: MIC of imipenem) of 24 µg/mL.

C[C@@H](O)[C@H]1C(=O)N2C(C(=O)O)=C(S[C@@H]3CN[C@H](C(=O)N(C)C)C3)[C@H](C)[C@H]12 [meropenem, reference compound] gave an MIC ([7]; read-out: MIC of meropenem) of 1.5 µg/mL, an MIC ([8]; read-out: MIC of meropenem) greater than 32 µg/mL and an MIC ([9]; read-out: MIC of meropenem) of 32 µg/mL.

In the case of “octanoyl polymyxin B heptapeptide [Octanoyl PMBH, reference compound]”, the “Antibacterial activity (growth inhibition area around a well)” value ([1]; 4 μg of compound per well) was 0 square millimeters, the “Antibacterial activity (growth inhibition area around a well)” value ([1]; 10 μg of compound per well) was 0 square millimeters and the “Antibacterial activity in the presence of rifampin (growth inhibition area around a well)” value ([4]; rifampin 0 μg/ml) was 0 square millimeters. The “Antibacterial activity in the presence of rifampin (growth inhibition area around a well)” value ([4]; rifampin 0.1 μg/ml) was 0 square millimeters, the “Antibacterial activity in the presence of rifampin (growth inhibition area around a well)” value ([4]; rifampin 1.0 μg/ml) was 38 square millimeters and the “Concentration needed to inhibit the growth of bacteria” value [10] was 128 µg/mL.
